Test results published in BindingDB's records for doi:10.1021/jm00356a028 (1983).

assay: Inhibition of HSV-1 DNA polymerase in HSV-1 C42 plaque reduction assay

Q: With `COC(=O)P(=O)(O)Oc1ccc2c(c1)CCC2` [sodium 2,3-dihydro-1H-inden-5-yl methoxycarbonylphosphonate] as the molecule, how does the IC50 read?
A: > 500 µM

Q: With `CC(C)OP(=O)(OC(C)C)C(=O)Oc1ccc([N+](=O)[O-])cc1` [4-nitrophenyl diisopropoxyphosphinecarboxylate oxide] as the molecule, how does the IC50 read?
A: > 500 µM

Q: Which IC50 does the source give for `CCOP(=O)(O)C(=O)Oc1ccc(Cl)cc1` [sodium ethyl (4-chlorophenoxy)carbonylphosphonate] here?
A: 500 µM

Q: For `O=C(Oc1ccccc1)P(=O)(O)O` [disodium phenoxycarbonylphosphonate], which IC50 is on record?
A: > 500 µM

Q: For `O=C(OCc1ccccc1)P(=O)(O)O` [disodium (benzyloxy)carbonylphosphonate], which IC50 is on record?
A: > 500 µM

Q: With `CCOC(=O)P(=O)(O)OCC` [sodium ethyl ethoxycarbonylphosphonate] as the molecule, how does the IC50 read?
A: > 500 µM

Q: With `COC(=O)P(=O)(OC)OC12CC3CC(CC(C3)C1)C2` (stereo not given) [methyl (1-adamantyloxy)(methoxy)phosphinecarboxylate oxide] as the molecule, how does the IC50 read?
A: > 500 µM

Q: Which IC50 does the source give for `CCCCOC(=O)P(=O)(O)O` [disodium butoxycarbonylphosphonate] here?
A: > 500 µM

Q: For `COP(=O)(OC)C(=O)Oc1ccccc1` [phenyl dimethoxyphosphinecarboxylate oxide], which IC50 is on record?
A: > 500 µM

Q: Which IC50 does the source give for `COP(=O)(O)C(=O)OCc1ccccc1` [sodium methyl (benzyloxy)carbonylphosphonate] here?
A: > 500 µM

Q: Which IC50 does the source give for `Cc1cccc(C)c1OP(=O)(O)C(=O)O` [disodium (2,6-dimethylphenoxy)(oxido)phosphinecarboxylate oxide] here?
A: > 500 µM

Q: With `CCOP(=O)(OCC)C(=O)Oc1ccc(Cl)cc1` [4-chlorophenyl diethoxyphosphinecarboxylate oxide] as the molecule, how does the IC50 read?
A: > 500 µM

Q: With `O=C(O)P(=O)(O)O` as the molecule, how does the IC50 read?
A: 74 µM

Q: With `CCCCOP(=O)(OCCCC)C(=O)OC` [methyl dibutoxyphosphinecarboxylate oxide] as the molecule, how does the IC50 read?
A: > 500 µM

Q: Which IC50 does the source give for `Cc1ccc(OP(=O)(O)C(=O)Oc2ccccc2)cc1` [sodium 4-methylphenyl phenoxycarbonylphosphonate] here?
A: 54 µM

Q: Which IC50 does the source give for `CCOP(=O)(O)C(=O)Oc1ccc(OC)cc1` [sodium ethyl (4-methoxyphenoxy)carbonylphosphonate] here?
A: 165 µM

Q: With `CCOP(=O)(O)C(=O)O` [disodium ethoxy(oxido)phosphinecarboxylate oxide] as the molecule, how does the IC50 read?
A: > 500 µM

Q: Which IC50 does the source give for `COC(=O)P(=O)(OC(C)C)OC(C)C` [methyl diisopropoxyphosphinecarboxylate oxide] here?
A: > 500 µM

Q: With `COP(=O)(O)C(=O)O` [disodium methoxy(oxido)phosphinecarboxylate oxide] as the molecule, how does the IC50 read?
A: > 500 µM

Q: Which IC50 does the source give for `COP(=O)(OC)C(=O)Oc1ccc(Cl)c(Cl)c1` [3,4-dichlorophenyl dimethoxyphosphinecarboxylate oxide] here?
A: > 500 µM

Q: Which IC50 does the source give for `CCOP(=O)(Oc1ccc2c(c1)CCC2)C(=O)OC` (stereo not given) [methyl (2,3-dihydro-1H-inden-5-yloxy)(ethoxy)phosphinecarboxylate oxide] here?
A: > 500 µM

Q: Which IC50 does the source give for `O=C(OC1CCCCC1)P(=O)(O)O` [disodium (cyclohexyloxy)carbonylphosphonate] here?
A: > 500 µM

Q: For `CCOP(=O)(Oc1ccc(OC)cc1)C(=O)Oc1ccccc1` (stereo not given) [phenyl (4-methoxyphenoxy)(ethoxy)phosphinecarboxylate oxide], which IC50 is on record?
A: 97 µM

Q: Which IC50 does the source give for `CCOC(=O)c1ccc(OC(=O)P(=O)(O)O)cc1` [disodium [4-(ethoxycarbonyl)phenoxy]carbonylphosphonate] here?
A: > 500 µM

Q: Which IC50 does the source give for `CCOP(=O)(Oc1ccc(C(C)=O)cc1)C(=O)OC` (stereo not given) [methyl (4-acetylphenoxy)(ethoxy)phosphinecarboxylate oxide] here?
A: > 500 µM

Q: Which IC50 does the source give for `COP(=O)(OC)C(=O)OC1CCCCC1` [cyclohexyl dimethoxyphosphinecarboxylate oxide] here?
A: > 500 µM

Q: For `O=C(O)P(=O)(O)Oc1ccc2c(c1)CCC2` [disodium (2,3-dihydro-1H-inden-5-yloxy)(oxido)phosphinecarboxylate oxide], which IC50 is on record?
A: 73 µM

Q: Which IC50 does the source give for `COP(=O)(OC)C(=O)Oc1ccc([N+](=O)[O-])cc1` [4-nitrophenyl dimethoxyphosphinecarboxylate oxide] here?
A: > 500 µM

Q: For `O=C(Oc1ccccc1)P(=O)(Oc1ccccc1)Oc1ccccc1` [phenyl diphenoxyphosphinecarboxylate oxide], which IC50 is on record?
A: 39 µM

Q: For `COc1ccc(OP(=O)(O)C(=O)O)cc1` [disodium (4-methoxyphenoxy)(oxido)phosphinecarboxylate oxide], which IC50 is on record?
A: 90 µM

Q: Which IC50 does the source give for `O=C(OCC1CCCC1)P(=O)(O)O` [disodium (cyclopentylmethoxy)carbonylphosphonate] here?
A: > 500 µM

Q: For `COc1ccc(OC(=O)P(=O)(O)O)cc1` [disodium (4-methoxyphenoxy)carbonylphosphonate], which IC50 is on record?
A: > 500 µM

Q: For `O=C(O)P(=O)(O)OC12CC3CC(CC(C3)C1)C2` [disodium (1-adamantyloxy)(oxido)phosphinecarboxylate oxide], which IC50 is on record?
A: > 500 µM

Q: With `COP(=O)(OC)C(=O)OC(C)C` [isopropyl dimethoxyphosphinecarboxylate oxide] as the molecule, how does the IC50 read?
A: > 500 µM

Q: Which IC50 does the source give for `CCOP(=O)(OCC)C(=O)Oc1ccc(OC)cc1` [4-methoxyphenyl diethoxyphosphinecarboxylate oxide] here?
A: > 500 µM

Q: For `Cc1ccc(OC(=O)P(=O)(O)O)cc1` [disodium (4-methylphenoxy)carbonylphosphonate], which IC50 is on record?
A: > 500 µM

Q: For `O=C(Oc1ccccc1)P(=O)(O)Oc1ccccc1` [sodium phenyl phenoxycarbonylphosphonate], which IC50 is on record?
A: 52 µM

Q: Which IC50 does the source give for `Cc1ccc(OP(=O)(Oc2ccc(C)cc2)C(=O)Oc2ccccc2)cc1` [phenyl bis(4-methylphenoxy)phosphinecarboxylate oxide] here?
A: 44 µM

Q: Which IC50 does the source give for `O=C(Oc1ccc(Cl)cc1)P(=O)(O)O` [disodium (4-chlorophenoxy)carbonylphosphonate] here?
A: 250 µM

Q: Which IC50 does the source give for `O=C(O)P(=O)(O)Oc1ccccc1` [disodium oxido(phenoxy)phosphinecarboxylate oxide] here?
A: 79 µM

Q: With `CC(C)OC(=O)P(=O)(O)O` [disodium isopropoxycarbonylphosphonate] as the molecule, how does the IC50 read?
A: > 500 µM

Q: For `COP(=O)(OC)C(=O)OCc1ccccc1` [benzyl dimethoxyphosphinecarboxylate oxide], which IC50 is on record?
A: > 500 µM

Q: With `CCOC(=O)P(=O)(O)Oc1ccccc1` [sodium phenyl ethoxycarbonylphosphonate] as the molecule, how does the IC50 read?
A: > 500 µM

Q: With `COP(=O)(O)C(=O)Oc1ccccc1` [sodium methyl phenoxycarbonylphosphonate] as the molecule, how does the IC50 read?
A: > 500 µM

Q: For `COP(=O)(OC)C(=O)OCC1CCCC1` [cyclopentylmethyl dimethoxyphosphinecarboxylate oxide], which IC50 is on record?
A: > 500 µM

Q: For `CCOP(=O)(Oc1c(C)cccc1C)C(=O)OC` (stereo not given) [methyl (2,6-dimethylphenoxy)(ethoxy)phosphinecarboxylate oxide], which IC50 is on record?
A: > 500 µM

Q: For `CCOC(=O)c1ccc(OC(=O)P(=O)(OC)OC)cc1` [4-(ethoxycarbonyl)phenyl dimethoxyphosphinecarboxylate oxide], which IC50 is on record?
A: > 500 µM

Q: Which IC50 does the source give for `COC(=O)P(=O)(OC)Oc1ccc(C(C)=O)cc1` (stereo not given) [methyl (4-acetylphenoxy)(methoxy)phosphinecarboxylate oxide] here?
A: > 500 µM

Q: With `CCCCOP(=O)(O)C(=O)OC` [sodium butyl methoxycarbonylphosphonate] as the molecule, how does the IC50 read?
A: > 500 µM

Q: For `Cc1ccc(OP(=O)(O)C(=O)O)cc1` [disodium (4-methylphenoxy)(oxido)phosphinecarboxylate oxide], which IC50 is on record?
A: 87 µM

Q: Which IC50 does the source give for `COC(=O)P(=O)(O)Oc1c(C)cccc1C` [sodium 2,6-dimethylphenyl methoxycarbonylphosphonate] here?
A: > 500 µM

Q: With `CCOC(=O)c1ccc(OC(=O)P(=O)(OCC)OCC)cc1` [4-(ethoxycarbonyl)phenyl diethoxyphosphinecarboxylate oxide] as the molecule, how does the IC50 read?
A: > 500 µM

Q: With `COP(=O)(OC)C(=O)Oc1ccc(C)cc1` [4-methylphenyl dimethoxyphosphinecarboxylate oxide] as the molecule, how does the IC50 read?
A: > 500 µM

Q: With `CCOC(=O)P(=O)(O)O` [disodium ethoxycarbonylphosphonate] as the molecule, how does the IC50 read?
A: > 500 µM

Q: For `CCCCOC(=O)P(=O)(OC)OC` [butyl dimethoxyphosphinecarboxylate oxide], which IC50 is on record?
A: > 500 µM
